Reference: ChEMBL document CHEMBL4406882, “The plant-derived chalcone Xanthoangelol targets the membrane of Gram-positive bacteria” (Bioorg Med Chem, 2019)
pIC50: −log10 of the molar value. Converted amounts (≈) assume the structure as drawn. The source made the active and inactive calls. The rule behind the calls is not given here.

Assays:
[1] = test system: Bacillus subtilis; test: Induction of DnaK.2 protein expression in Bacillus subtilis 168 at 2.3 uM incubated for 15 mins by 35S-methionine pulse labeling based 2D-PAGE analysis; format: functional, organism-based
[2] = test system: Bacillus subtilis; test: Induction of AhpF protein expression in Bacillus subtilis 168 at 2.3 uM incubated for 15 mins by 35S-methionine pulse labeling based 2D-PAGE analysis; format: functional, organism-based
[3] = test system: Bacillus subtilis; test: Induction of Cah protein expression in Bacillus subtilis 168 at 2.3 uM incubated for 15 mins by 35S-methionine pulse labeling based 2D-PAGE analysis; format: functional, organism-based
[4] = test system: Staphylococcus aureus; test: Bactericidal activity against methicillin-resistant Staphylococcus aureus ATCC 700699 assessed as reduction in bacterial CFU at 4 times MIC measured for 30 mins; format: functional
[5] = test system: Bacillus subtilis; test: Induction of GroEL.2 protein expression in Bacillus subtilis 168 at 2.3 uM incubated for 15 mins by 35S-methionine pulse labeling based 2D-PAGE analysis; format: functional, organism-based
[6] = test system: Bacillus subtilis; test: Induction of Tpx protein expression in Bacillus subtilis 168 at 2.3 uM incubated for 15 mins by 35S-methionine pulse labeling based 2D-PAGE analysis; format: functional, organism-based
[7] = (§1) Cytotoxicity against human HEK293 cells assessed as reduction in cell viability incubated for 48 hrs by resazurin reagent based assay; settings: human, HEK293 cells
[8] = test system: HEK293; test: as §1; settings: Homo sapiens, HEK293, 48 h
[9] = test system: Pseudomonas aeruginosa; test: Antibacterial activity against Pseudomonas aeruginosa ATCC 27853 by broth micro dilution method; format: functional
[10] = test system: Staphylococcus aureus; test: Induction of membrane integrity impairment in methicillin-resistant Staphylococcus aureus ATCC 700699 at 0.5 to 4 times MIC measured for 30 mins by DiOC2(3) probe based fluorescence assay; format: functional, organism-based
[11] = test system: Bacillus subtilis; test: Induction of YkgB protein expression in Bacillus subtilis 168 at 2.3 uM incubated for 15 mins by 35S-methionine pulse labeling based 2D-PAGE analysis; format: functional, organism-based
[12] = test system: Staphylococcus aureus; test: Antibacterial activity against Staphylococcus aureus ATCC 25923 by broth micro dilution method; format: functional
[13] = test system: Bacillus subtilis; test: Induction of AroA protein expression in Bacillus subtilis 168 at 2.3 uM incubated for 15 mins by 35S-methionine pulse labeling based 2D-PAGE analysis; format: functional, organism-based
[14] = test system: Bacillus subtilis; test: Induction of SodA protein expression in Bacillus subtilis 168 at 2.3 uM incubated for 15 mins by 35S-methionine pulse labeling based 2D-PAGE analysis; format: functional, organism-based
[15] = test system: Staphylococcus aureus; test: Antibacterial activity against methicillin-resistant Staphylococcus aureus ATCC 700699 assessed as delay in growth at 6.25 uM measured for 24 hrs relative to control; format: functional
[16] = test system: Bacillus subtilis; test: Induction of ClpP protein expression in Bacillus subtilis 168 at 2.3 uM incubated for 15 mins by 35S-methionine pulse labeling based 2D-PAGE analysis; format: functional, organism-based
[17] = test system: Bacillus subtilis; test: Induction of GroEL.1 protein expression in Bacillus subtilis 168 at 2.3 uM incubated for 15 mins by 35S-methionine pulse labeling based 2D-PAGE analysis; format: functional, organism-based
[18] = test system: Bacillus subtilis; test: Induction of MenB protein expression in Bacillus subtilis 168 at 2.3 uM incubated for 15 mins by 35S-methionine pulse labeling based 2D-PAGE analysis; format: functional, organism-based
[19] = test system: Bacillus subtilis; test: Induction of YhfK protein expression in Bacillus subtilis 168 at 2.3 uM incubated for 15 mins by 35S-methionine pulse labeling based 2D-PAGE analysis; format: functional, organism-based
[20] = test system: Staphylococcus aureus; test: Antibacterial activity against methicillin-resistant Staphylococcus aureus ATCC 700699 by broth micro dilution method; format: functional
[21] = Selectivity index, ratio of IC50 for human HepG2 cells to MIC90 for methicillin-resistant Staphylococcus aureus ATCC 700699; format: toxicity; settings: read-out: Selectivity Index
[22] = test system: Bacillus subtilis; test: Induction of ArgB protein expression in Bacillus subtilis 168 at 2.3 uM incubated for 15 mins by 35S-methionine pulse labeling based 2D-PAGE analysis; format: functional, organism-based
[23] = Selectivity index, ratio of IC50 for human THP1 cells to MIC90 for methicillin-resistant Staphylococcus aureus ATCC 700699; format: toxicity; settings: read-out: Selectivity Index
[24] = (§2) Cytotoxicity against human MRC5 cells assessed as reduction in cell viability incubated for 48 hrs by resazurin reagent based assay; settings: human, MRC5 cells
[25] = test system: MRC5; test: as §2; settings: Homo sapiens, MRC5, 48 h
[26] = test system: THP-1; test: (§3) Cytotoxicity against human THP1 cells assessed as reduction in cell viability incubated for 48 hrs by resazurin reagent based assay; settings: Homo sapiens, THP-1, 48 h
[27] = as §3; set-up: species or system THP-1; settings: human, THP1 cells
[28] = test system: Bacillus subtilis; test: Induction of DnaK.1 protein expression in Bacillus subtilis 168 at 2.3 uM incubated for 15 mins by 35S-methionine pulse labeling based 2D-PAGE analysis; format: functional, organism-based
[29] = test system: Bacillus subtilis; test: Induction of HisI protein expression in Bacillus subtilis 168 at 2.3 uM incubated for 15 mins by 35S-methionine pulse labeling based 2D-PAGE analysis; format: functional, organism-based
[30] = test system: Bacillus subtilis; test: Induction of YdjE protein expression in Bacillus subtilis 168 at 2.3 uM incubated for 15 mins by 35S-methionine pulse labeling based 2D-PAGE analysis; format: functional, organism-based
[31] = test system: Bacillus subtilis; test: Induction of PpaC protein expression in Bacillus subtilis 168 at 2.3 uM incubated for 15 mins by 35S-methionine pulse labeling based 2D-PAGE analysis; format: functional, organism-based
[32] = test system: Bacillus subtilis; test: Induction of YvlB protein expression in Bacillus subtilis 168 at 2.3 uM incubated for 15 mins by 35S-methionine pulse labeling based 2D-PAGE analysis; format: functional, organism-based
[33] = test system: Bacillus subtilis; test: Induction of NfrA protein expression in Bacillus subtilis 168 at 2.3 uM incubated for 15 mins by 35S-methionine pulse labeling based 2D-PAGE analysis; format: functional, organism-based
[34] = test system: Bacillus subtilis; test: Induction of TrxA protein expression in Bacillus subtilis 168 at 2.3 uM incubated for 15 mins by 35S-methionine pulse labeling based 2D-PAGE analysis; format: functional, organism-based

In the case of `CC(C)=CCC/C(C)=C/Cc1c(O)ccc(C(=O)/C=C/c2ccc(O)cc2)c1O` [XANTHOANGELOL], the Activity [1] was “Active”, the Activity [2] was “Active” and the Activity [3] was “Active”. The Activity [4] was <20 CFU/ml, the Activity [5] was “Active” and the Activity [6] was “Active”. The IC90 at 48 h [7] was 44.8 µM, the pIC50 [8] was 4.67 and the MIC [9] was > 100 µM. The Activity [10] was “Active”, the Activity [11] was “Active” and the MIC [12] was 6.25 µM (≈ 2.45 µg/mL). For the same molecule, the Activity [13] was “Active”, the Activity [14] was “Active” and the Activity [15] was 100%. The Activity [16] was “Active”, the Activity [17] was “Active” and the Activity [18] was “Active”. For the same molecule, the Activity [19] was “Active”, the MIC [20] was 3.12 µM (≈ 1.23 µg/mL) and the MIC50 [20] was 0.96 µM (≈ 0.377 µg/mL). For the same molecule, the MIC90 [20] was 1.33 µM (≈ 0.522 µg/mL), the selectivity ratio [21] was 10.3 and the Activity [22] was “Active”. The selectivity ratio [23] was 17.7, the IC90 at 48 h [24] was 27.6 µM and the pIC50 [25] was 4.66. The pIC50 [26] was 4.63, the IC90 at 48 h [27] was 39.1 µM and the Activity [28] was “Active”. The Activity [29] was “Active”, the Activity [30] was “Active” and the Activity [31] was “Active”. For the same molecule, the Activity [32] was “Active”, the Activity [33] was “Active” and the Activity [34] was “Active”.
